# Details: half-life period of decomposition 10 hours; 0,1 M solution in chlorobenzene
structure (smiles),measurement,value
"C=CC(C)(C)OOC(C)(C)c1ccccc1 [peroxide 3, α-(2-methyl-3-buten-2-ylperoxy)isopropylbenzene]",Temperature (°C) for t½ of 10 hours,106 °C
